Publication PMC9117149, “USP14-regulated allostery of the human proteasome by time-resolved cryo-EM” (Nature, 2022)
Numbered stars: 1 amine (or outer) side, 2 acyl side, 3 side chain; on linkers, the order of the positions; unused ones are H or OH. Peptide text beside a SMILES is read from it. * marks the point of attachment. AMC = Cc1cc(=O)oc2cc(N*)ccc12; Suc = O=C(CCC(=O)[*:2])[*:1]

Assays:
[1] = tested on: T1, human 26S proteasome, AAA-ATPase motor (RPT1-RPT6); conditions: 0.5 mM ATP, 5 mM MgCl2, pH 7.5, 37 °C, with 300 nM Ubn-Sic1PY and RPN13; USP14-free
T1 construct: gene PSMC2
T1 sequence (P35998 2-433): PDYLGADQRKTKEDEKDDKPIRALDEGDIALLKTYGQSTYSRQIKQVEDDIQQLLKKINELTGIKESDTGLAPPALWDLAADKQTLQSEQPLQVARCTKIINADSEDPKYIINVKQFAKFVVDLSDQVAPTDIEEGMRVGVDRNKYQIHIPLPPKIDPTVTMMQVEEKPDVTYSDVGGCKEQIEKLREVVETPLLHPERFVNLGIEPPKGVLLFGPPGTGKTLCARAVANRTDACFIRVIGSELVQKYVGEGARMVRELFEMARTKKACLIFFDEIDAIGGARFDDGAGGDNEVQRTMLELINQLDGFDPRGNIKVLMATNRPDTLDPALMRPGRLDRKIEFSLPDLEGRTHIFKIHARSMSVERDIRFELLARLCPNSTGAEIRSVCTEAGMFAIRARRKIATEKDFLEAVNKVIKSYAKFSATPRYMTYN
T1 sequence (P62191 2-440, further chain): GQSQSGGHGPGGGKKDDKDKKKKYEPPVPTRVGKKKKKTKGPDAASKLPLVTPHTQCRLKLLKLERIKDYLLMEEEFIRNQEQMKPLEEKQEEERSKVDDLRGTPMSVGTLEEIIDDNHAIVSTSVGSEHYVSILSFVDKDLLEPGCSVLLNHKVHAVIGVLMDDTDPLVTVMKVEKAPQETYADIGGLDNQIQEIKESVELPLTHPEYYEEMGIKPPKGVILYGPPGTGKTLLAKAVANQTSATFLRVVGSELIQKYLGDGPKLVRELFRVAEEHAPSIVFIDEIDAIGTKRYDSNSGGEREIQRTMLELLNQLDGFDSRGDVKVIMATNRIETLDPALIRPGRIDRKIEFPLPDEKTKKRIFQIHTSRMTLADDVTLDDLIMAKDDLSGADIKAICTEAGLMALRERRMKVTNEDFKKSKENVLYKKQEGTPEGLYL
T1 sequence (P43686 whole entry, further chain): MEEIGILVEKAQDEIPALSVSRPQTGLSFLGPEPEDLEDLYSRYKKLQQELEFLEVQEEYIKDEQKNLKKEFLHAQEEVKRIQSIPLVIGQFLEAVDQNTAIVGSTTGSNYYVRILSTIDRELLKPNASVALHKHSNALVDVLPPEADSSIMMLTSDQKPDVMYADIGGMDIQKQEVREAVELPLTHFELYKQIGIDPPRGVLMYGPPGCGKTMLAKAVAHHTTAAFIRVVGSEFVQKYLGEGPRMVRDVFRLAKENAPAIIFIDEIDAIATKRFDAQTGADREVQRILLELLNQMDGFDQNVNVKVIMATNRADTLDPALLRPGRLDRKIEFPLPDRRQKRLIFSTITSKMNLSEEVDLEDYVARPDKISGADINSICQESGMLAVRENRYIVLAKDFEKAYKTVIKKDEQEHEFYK
T1 sequence (P62333 whole entry, further chain): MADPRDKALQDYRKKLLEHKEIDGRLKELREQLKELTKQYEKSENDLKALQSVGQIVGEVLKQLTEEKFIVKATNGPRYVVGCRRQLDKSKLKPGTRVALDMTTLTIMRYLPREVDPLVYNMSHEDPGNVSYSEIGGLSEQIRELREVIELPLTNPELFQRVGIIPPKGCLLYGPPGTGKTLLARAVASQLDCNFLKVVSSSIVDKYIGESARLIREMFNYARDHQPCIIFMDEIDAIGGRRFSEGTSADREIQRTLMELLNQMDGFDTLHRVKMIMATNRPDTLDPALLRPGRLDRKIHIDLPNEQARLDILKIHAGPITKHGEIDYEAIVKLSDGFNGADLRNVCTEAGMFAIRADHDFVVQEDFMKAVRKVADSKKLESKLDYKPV
T1 sequence (P17980 whole entry, further chain): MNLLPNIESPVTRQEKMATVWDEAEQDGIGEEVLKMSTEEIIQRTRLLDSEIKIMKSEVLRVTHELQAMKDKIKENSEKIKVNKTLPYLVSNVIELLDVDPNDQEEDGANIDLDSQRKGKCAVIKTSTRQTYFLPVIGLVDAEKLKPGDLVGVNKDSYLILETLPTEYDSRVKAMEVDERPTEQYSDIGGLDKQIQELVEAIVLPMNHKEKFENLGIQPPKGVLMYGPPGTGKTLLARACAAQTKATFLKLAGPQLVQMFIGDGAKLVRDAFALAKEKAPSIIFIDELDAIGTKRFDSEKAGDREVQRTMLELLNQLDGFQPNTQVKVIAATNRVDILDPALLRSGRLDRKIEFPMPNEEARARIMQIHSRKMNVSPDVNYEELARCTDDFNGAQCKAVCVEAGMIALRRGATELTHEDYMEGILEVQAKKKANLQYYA
T1 sequence (P62195 2-406, further chain): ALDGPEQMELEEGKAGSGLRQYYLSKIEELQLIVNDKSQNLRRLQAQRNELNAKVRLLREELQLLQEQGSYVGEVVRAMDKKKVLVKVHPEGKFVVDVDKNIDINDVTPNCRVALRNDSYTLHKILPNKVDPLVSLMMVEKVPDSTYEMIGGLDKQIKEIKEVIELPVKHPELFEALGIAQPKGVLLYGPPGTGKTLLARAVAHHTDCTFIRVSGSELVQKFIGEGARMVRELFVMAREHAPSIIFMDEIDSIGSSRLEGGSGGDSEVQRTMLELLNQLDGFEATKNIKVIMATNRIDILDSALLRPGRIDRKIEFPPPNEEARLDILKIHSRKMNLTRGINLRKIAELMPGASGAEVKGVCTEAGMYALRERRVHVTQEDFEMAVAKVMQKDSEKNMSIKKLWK

[2] = molecular target: T2, human 26S proteasome (peptidase activity) (Homo sapiens, UniProt P28074); test: AMC fluorescence; type: biochemical; conditions: 10 μM substrate, 0.1 mM ATP, 0.5 mM MgCl2, 100 mM KCl, pH 7.5, 37 °C; USP14-free (also with USP14 variants)
T2 construct: gene PSMB5; 20S core particle; with Proteasome subunit beta type-1; Proteasome subunit beta type-2; Proteasome subunit beta type-3; Proteasome subunit beta type-4; Proteasome subunit beta type-6; Proteasome subunit beta type-7
T2 sequence (P28074 60-263): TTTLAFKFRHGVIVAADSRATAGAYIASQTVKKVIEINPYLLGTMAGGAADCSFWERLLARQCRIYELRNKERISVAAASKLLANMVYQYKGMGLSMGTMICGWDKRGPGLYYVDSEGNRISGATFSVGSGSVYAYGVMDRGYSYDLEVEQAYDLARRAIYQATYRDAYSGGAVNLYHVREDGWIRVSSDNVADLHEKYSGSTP

| SMILES | malachite green phosphate release [1] | AMC fluorescence [2] |
| --- | --- | --- |
| Nc1ncnc2c1ncn2[C@@H]1O[C@H](COP(=O)(O)OP(=O)(O)OP(=O)(O)O)[C@@H](O)[C@H]1O [ATP] | ATPase activity was quantified using malachite green phosphate assay kits |  |
| Cc1cc(=O)oc2cc(NC(=O)[C@H](Cc3ccc(O)cc3)NC(=O)[C@@H](NC(=O)[C@H](CC(C)C)NC(=O)[C@H](CC(C)C)NC(=O)CCC(=O)O)C(C)C)ccc12 [Suc-LLVY-AMC] (Suc-LLVY-{AMC}) |  | Peptide hydrolysis by the human proteasomes was measured using fluorogenic substrate Suc-LLVY-AMC |
